Consider 1 compound from paper PMC3923730 (Journal of Translational Medicine, 2014).

“And” between values parts separate entries of the source, which are not always exact repeats. Equal values may be shown once.

The nature of series [1]: Pharmacokinetics in rats (plasma). The format is in vivo. The settings on record: rat plasma. The protocol:
(§1) TRO40303 was administered by intravenous (i.v.) bolus to healthy rats at doses of 0.3, 1, 3 and 10 mg/kg in IL30 under isoflurane gas anaesthesia. A maximum of 0.25 mL of blood was collected into lithium heparin tubes at 5, 15 and 30 min, 1 h, 2 h, 4 h, 8 h and 24 h after drug administration (3 rats per time point). The blood samples were cooled on ice and plasma samples were prepared within 60 min of sampling by centrifugation at 1500 g at 4 °C for 10 min and stored at –20°C until analysis. For heart level measurements, TRO40303 was administrated i.v. to rats undergoing the myocardial infarction procedure at the dose of 1 mg/kg in IL30 either 10 min before CAO or 10 min before CAR. Five min after CAR, rats were anesthetised and sacrificed, hearts were isolated and washed with saline. Tissue from AAR was separated from the remainder of the left ventricle; samples were frozen and stored at –20°C until analysis. After TRO40303 plasma concentration analysis, TRO40303 plasma AUC(0-∞) (the area under the curve extrapolated from time zero to time infinity), was calculated using Kinetica™, version 4.4.1 (Thermo Electron Corporation, Philadelphia, PA 19103, USA). The results were analyzed in comparison with previous pharmacokinetic data obtained with TRO40303 formulated in HPBCD at 2.5 mg/kg.
Thawed preclinical samples were extracted with acetonitrile, centrifuged, purified on SPEC C2 cartridge (Varian) for the heart samples and analysed along with calibration standards. Analysis was carried out on an Alliance 2695 (Waters) system interfaced to an API Quattro Micro (Waters) MS detector. Calculations were carried out with Waters QuanLynx software.

Series [2] can be described thus: TRO40303 heart level measurement in rats. The class given is in vivo. The settings on record: rat, 1 mg/kg i.v. in IL30 10 min before CAO or 10 min before CAR, 5 min post reperfusion, AAR and remainder of left ventricle. The protocol:
as §1, with “Tissue from AAR was separated from the remainder of the left ventricle; samples were frozen and stored at –20°C until analysis.” left out
Thawed preclinical samples were extracted with acetonitrile, centrifuged, purified on SPEC C2 cartridge (Varian) for the heart samples and analysed along with calibration standards. […]

The subject of the next series is isolated rat heart. Briefly: Langendorff isolated rat heart ischemia-reperfusion, hemodynamic measurements. The settings on record: 1 μM, vs 0.03% HPBCD. Here is the method:
Ischemic reperfusion of Langendorff isolated rat heart was performed as previously described. Rat hearts were perfused either with TRO40303 1 μM (0.5 mg/mL stock in 30% HPBCD diluted 1000X in Krebs-Henseleit (KH) buffer (n = 29)) or vehicle (30% HPBCD diluted 1000X in KH buffer (n = 24)) during 30 min equilibration, 10 min low flow ischemia, and 60 min reperfusion following 30 min of total ischemia. During the reperfusion period, the following parameters were monitored via a water-filled latex balloon inserted into the left ventricle: left ventricular end diastolic pressure (LVEDP); left ventricular developed pressure (Pdev); its first derivative (dP/dt) and heart rate. Coronary flow was measured by collecting the coronary perfusate over 1 min. The rate-pressure product (RPP) was calculated as the product of Pdev and heart rate. Some of the hearts from this main experiment were used to assess ascorbate, reactive oxygen species (ROS) and lipid peroxidation as described below.

The next series relates to Domestic Yorkshire pigs. Briefly: Porcine liposome-induced cardio-pulmonary distress model. The format is in vivo. The settings on record: pig, 10 mg/kg i.v. liposomal formulation. The protocol:
Domestic Yorkshire pigs (12-14 weeks, ~25 kg) received multiple i.v. injections of the test material via the external jugular vein at 10 mL/min as follows: saline as a negative control, the liposomal formulation of TRO40303 at 10 mg/kg and a bolus of Doxil® at 0.01 mg/kg as a positive control. Doxil® is a marketed liposomal formulation of doxorubicin administered intravenously that can provoke acute infusion-related reactions.
Hemodynamic changes were monitored continuously for at least 30 min after the end of each test material infusion. Systemic arterial blood pressure (SAP) and pulmonary arterial blood pressure (PAP) changes were evaluated.

A short description of series [3]: Pharmacokinetic based allometry to human. The settings on record: allometric scaling, body weights 50-115 kg, 95% CI. The protocol:
Pharmacokinetic based allometry (natural logarithm (ln) transformation) was performed using available pharmacokinetic data (not shown) from various animal species and was used to estimate clearance (CL) and the initial volume of distribution (V1 = Dose/C0; C0 defined as the extrapolated plasma concentration at time zero) in human. Animals had received a single i.v. bolus dose of TRO40303 administered under lipid-based formulations (Intralipid® and liposomes) in rats and pigs or under cremophor EL®/ethanol/saline formulation in dogs and monkeys. The pharmacokinetic parameters were assessed from the mean (for rodents) or individual TRO40303 plasma concentration versus time profiles using a non-compartmental approach “Log Linear Method” (Kinetica™, version 4.4.1). The ln of the CL and the ln of V1 were each plotted against the ln of the animals’ body weight. Finally, using this relationship, the human CL and V1 were estimated based on the human body weight ranging from 50 to 115 kg.

`CC(C)CCC[C@@H](C)[C@H]1CC[C@H]2[C@@H]3CC/C(=N\O)[C@](C)(CCCO)[C@H]3CC[C@]12C` [TRO40303, 3,5-seco-4-nor-cholestan-5-one oxime-3-ol]: the “AUC(0-∞)” value in series [1] (3 mg/kg i.v. in IL30, satellite animals) amounted to 14000 ng·h/mL. Also, the C5min in series [1] (3 mg/kg i.v. in IL30, satellite animals, 3 mg/kg) is 57.9 μM and 23.5 μg/mL. In addition, the “AUC(0-∞)” value in series [1] (10 mg/kg i.v. in IL30, satellite animals) amounted to 44800 ng·h/mL. Moreover, the C5min in series [1] (10 mg/kg i.v. in IL30, satellite animals, 10 mg/kg) is 130 μM and 52.8 μg/mL. Also, the “concentration of TRO40303 in heart tissue” value in series [2] is recorded as ~ 1 μg/g. Further, in the series on isolated rat heart (60 min reperfusion after 30 min total ischemia), the “recovery of LVEDP at reperfusion” value was “greatly and significantly improved”. Also, in the series on isolated rat heart (reperfusion), the “contractility (dP/dt)” value was “improved”, the “developed pressure (Pdev)” value is reported as “improved”, the “rate-pressure product (RPP)” value is recorded as “significantly higher” and the “recovery of coronary flow” value is “better recovery”. The “change in systemic arterial blood pressure (SAP)” value in the series on Domestic Yorkshire pigs was “not changed”. In series [3], the “predicted human CL” value is 0.883 to 3.97 mL/min/kg and the “predicted human V1” value was 0.089 to 0.741 L/kg.
